Results published in ChEMBL document CHEMBL1201862, “PubChem BioAssay data set” (2004).
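Grown in 96-well plates, cells were treated for 48 hours with each compound at five concentrations. Insufficient inhibition: endpoint recorded as highest concentration tested. Here, GI50 denotes the concentration required for 50% inhibition of growth.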 Active and inactive are the calls of the source. No stated cut-off is given here; in the data, active = GI50 up to about 1.1 µM and inactive = higher.

How the values were obtained:
Assay in all cases: inhibition of tumour cell growth, NCI panel, 48 h
786-0 = system: 786-0
A498 = system: A498
A549 = system: A549
ACHN = system: ACHN
BT-549 = system: BT-549
CAKI-1 = system: CAKI-1
CCRF-CEM = system: CCRF-CEM
COLO 205 = system: COLO 205
DU-145 = system: DU-145
EKVX = system: EKVX
HCC 2998 = system: HCC 2998
HCT-116 = system: HCT-116
HCT-15 = system: HCT-15
HL-60 = system: HL-60
HOP-62 = system: HOP-62
HOP-92 = system: HOP-92
HT-29 = system: HT-29
Hs-578T = system: Hs-578T
IGROV-1 = system: IGROV-1
K562 = system: K562
KM12 = system: KM12
LOX IMVI = system: LOX IMVI
M14 = system: M14
MCF7 = system: MCF7
MDA-MB-231 = system: MDA-MB-231
MDA-MB-435 = system: MDA-MB-435
MDA-N = system: MDA-N
MOLT-4 = system: MOLT-4
Malme-3M = system: Malme-3M
NCI-H226 = system: NCI-H226
NCI-H23 = system: NCI-H23
NCI-H460 = system: NCI-H460
NCI-H522 = system: NCI-H522
NCI/ADR-RES = system: NCI/ADR-RES
OVCAR-3 = system: OVCAR-3
OVCAR-4 = system: OVCAR-4
OVCAR-5 = system: OVCAR-5
OVCAR-8 = system: OVCAR-8
PC-3 = system: PC-3
RPMI-8226 = system: RPMI-8226
RXF 393 = system: RXF 393
SF-268 = system: SF-268
SF-295 = system: SF-295
SF-539 = system: SF-539
SK-MEL-28 = system: SK-MEL-28
SK-MEL-2 = system: SK-MEL-2
SK-MEL-5 = system: SK-MEL-5
SK-OV-3 = system: SK-OV-3
SN12C = system: SN12C
SNB-19 = system: SNB-19
SNB-75 = system: SNB-75
SR = system: SR
SW-620 = system: SW-620
T47D = system: T47D
TK-10 = system: TK-10
U-251 = system: U-251
UACC-257 = system: UACC-257
UACC-62 = system: UACC-62
UO-31 = system: UO-31

Structure (SMILES): CC(CSc1nc2c(c(=N)n1-c1ccccc1)c(=S)n(-c1ccccc1)c(=S)n2-c1ccccc1)CN(C)C (stereo not given)
- GI50 (786-0): 1.15 µM (inactive)
- GI50 (A498): 2.8 µM (inactive)
- GI50 (A549): 1.82 µM (inactive)
- GI50 (ACHN): 1.76 µM (inactive)
- GI50 (BT-549): 1.78 µM (inactive)
- GI50 (CAKI-1): 1.61 µM (inactive)
- GI50 (CCRF-CEM): 0.289 µM (active)
- GI50 (COLO 205): 1.83 µM (inactive)
- GI50 (DU-145): 1.66 µM (inactive)
- GI50 (EKVX): 1.66 µM (inactive)
- GI50 (HCC 2998): 1.32 µM (inactive)
- GI50 (HCT-116): 1.67 µM (inactive)
- GI50 (HCT-15): 1.55 µM
- GI50 (HL-60): 0.615 µM (active)
- GI50 (HOP-62): 1.88 µM (inactive)
- GI50 (HOP-92): 1.56 µM (inactive)
- GI50 (HT-29): 1.95 µM (inactive)
- GI50 (Hs-578T): 2.5 µM (inactive)
- GI50 (IGROV-1): 1.4 µM (inactive)
- GI50 (K562): 1.07 µM (active)
- GI50 (KM12): 2.25 µM (inactive)
- GI50 (LOX IMVI): 1.05 µM (active)
- GI50 (M14): 1.86 µM (inactive)
- GI50 (MCF7): 0.313 µM (active)
- GI50 (MDA-MB-231): 1.87 µM (inactive)
- GI50 (MDA-MB-435): 1.72 µM (inactive)
- GI50 (MDA-N): 1.91 µM (inactive)
- GI50 (MOLT-4): 0.931 µM (active)
- GI50 (Malme-3M): 1.71 µM (inactive)
- GI50 (NCI-H226): 6.38 µM (inactive)
- GI50 (NCI-H23): 2.2 µM (inactive)
- GI50 (NCI-H460): 1.97 µM (inactive)
- GI50 (NCI-H522): 1.11 µM (active)
- GI50 (NCI/ADR-RES): 3.08 µM (inactive)
- GI50 (OVCAR-3): 1.71 µM (inactive)
- GI50 (OVCAR-4): 1.76 µM (inactive)
- GI50 (OVCAR-5): 13.6 µM (inactive)
- GI50 (OVCAR-8): 1.6 µM (inactive)
- GI50 (PC-3): 1.87 µM (inactive)
- GI50 (RPMI-8226): 0.335 µM (active)
- GI50 (RXF 393): 1.59 µM (inactive)
- GI50 (SF-268): 1.71 µM (inactive)
- GI50 (SF-295): 6.22 µM (inactive)
- GI50 (SF-539): 3.05 µM (inactive)
- GI50 (SK-MEL-28): 2.12 µM (inactive)
- GI50 (SK-MEL-2): 2.45 µM (inactive)
- GI50 (SK-MEL-5): 2.05 µM (inactive)
- GI50 (SK-OV-3): 4.06 µM (inactive)
- GI50 (SN12C): 1.81 µM (inactive)
- GI50 (SNB-19): 4.65 µM (inactive)
- GI50 (SNB-75): 1.78 µM (inactive)
- GI50 (SR): 0.558 µM (active)
- GI50 (SW-620): 1.79 µM (inactive)
- GI50 (T47D): 2.67 µM (inactive)
- GI50 (TK-10): 1.69 µM (inactive)
- GI50 (U-251): 1.82 µM (inactive)
- GI50 (UACC-257): 1.79 µM (inactive)
- GI50 (UACC-62): 1.7 µM (inactive)

Structure (SMILES): COC(=O)NCCc1n[nH]c2c1C(=O)C=C(Nc1ccccc1)C2=O
- GI50 (786-0): 47.3 µM (inactive)
- GI50 (A498): 47.2 µM (inactive)
- GI50 (A549): 36.7 µM (inactive)
- GI50 (ACHN): 32.4 µM (inactive)
- GI50 (BT-549): 23.4 µM (inactive)
- GI50 (CAKI-1): 46.1 µM (inactive)
- GI50 (CCRF-CEM): 13.7 µM (inactive)
- GI50 (COLO 205): 16.8 µM (inactive)
- GI50 (DU-145): 47.5 µM (inactive)
- GI50 (EKVX): 27.3 µM (inactive)
- GI50 (HCC 2998): 38.2 µM (inactive)
- GI50 (HCT-116): 21.7 µM (inactive)
- GI50 (HCT-15): 22.4 µM
- GI50 (HL-60): 19.2 µM (inactive)
- GI50 (HOP-62): 68.2 µM (inactive)
- GI50 (HOP-92): 27.7 µM (inactive)
- GI50 (HT-29): 24.1 µM (inactive)
- GI50 (Hs-578T): 36.7 µM (inactive)
- GI50 (IGROV-1): 24.5 µM (inactive)
- GI50 (K562): 28.2 µM (inactive)
- GI50 (KM12): 18.4 µM (inactive)
- GI50 (LOX IMVI): 15.5 µM (inactive)
- GI50 (M14): 33.4 µM (inactive)
- GI50 (MCF7): 15.5 µM (inactive)
- GI50 (MDA-MB-231): 25.9 µM (inactive)
- GI50 (MDA-MB-435): 17 µM (inactive)
- GI50 (MDA-N): 17.9 µM (inactive)
- GI50 (MOLT-4): 19.7 µM (inactive)
- GI50 (Malme-3M): 12.7 µM (inactive)
- GI50 (NCI-H23): 15.1 µM (inactive)
- GI50 (NCI-H460): 32.4 µM (inactive)
- GI50 (NCI-H522): 13.5 µM (inactive)
- GI50 (NCI/ADR-RES): 28.5 µM (inactive)
- GI50 (OVCAR-3): 3.72 µM (inactive)
- GI50 (OVCAR-4): 15.4 µM (inactive)
- GI50 (OVCAR-5): 29 µM (inactive)
- GI50 (OVCAR-8): 17.9 µM (inactive)
- GI50 (PC-3): 30.3 µM (inactive)
- GI50 (RPMI-8226): 19.1 µM (inactive)
- GI50 (RXF 393): 41.2 µM (inactive)
- GI50 (SF-268): 26 µM (inactive)
- GI50 (SF-295): 30.3 µM (inactive)
- GI50 (SF-539): 20.7 µM (inactive)
- GI50 (SK-MEL-2): 20.6 µM (inactive)
- GI50 (SK-MEL-5): 17.9 µM (inactive)
- GI50 (SK-OV-3): 74.6 µM (inactive)
- GI50 (SN12C): 34.8 µM (inactive)
- GI50 (SNB-19): 28 µM (inactive)
- GI50 (SNB-75): 57.3 µM (inactive)
- GI50 (SR): 10.9 µM (inactive)
- GI50 (SW-620): 25.6 µM (inactive)
- GI50 (T47D): 30.1 µM (inactive)
- GI50 (TK-10): > 100 µM (inactive)
- GI50 (U-251): 15.2 µM (inactive)
- GI50 (UACC-257): 16.7 µM (inactive)
- GI50 (UACC-62): 17.3 µM (inactive)
- GI50 (UO-31): 35.3 µM (inactive)
